Assay results reported in PubChem BioAssay AID2060904 (Molecular Pharmacology Branch, DTP, NCI, 2025).
pIC50: −log10 of the molar value.

Tested on: 349418-098-R-PDC complex spheroid viability
Experiment: Anticancer human tumor 349418-098-R-PDC patient-derived lung adenocarcinoma cell line growth inhibition [RAS]
Conditions: for pIC50: curve of first compound; for viability, T/C: stronger effect = lower value
Method in brief: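 Agents were tested in combination matrices in half-log decrements from a top concentration at or near clinical Cmax (10 microM if undetermined). Targets were multi-cell spheroids of tumour lines plus HUVEC and MSC stromal cells.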

[1] = second compound 0.00316 µM, first compound 0.0316 µM
[2] = second compound 0.00316 µM, first compound 0.1 µM
[3] = second compound 0.00316 µM, first compound 0.316 µM
[4] = second compound 0.00316 µM, first compound 1 µM
[5] = second compound 0.00316 µM, first compound 3.16 µM
[6] = second compound 0.00316 µM, first compound 10 µM
[7] = second compound 0.01 µM, first compound 0.0316 µM
[8] = second compound 0.01 µM, first compound 0.1 µM
[9] = second compound 0.01 µM, first compound 0.316 µM
[10] = second compound 0.01 µM, first compound 1 µM
[11] = second compound 0.01 µM, first compound 3.16 µM
[12] = second compound 0.01 µM, first compound 10 µM
[13] = second compound 0.0316 µM, first compound 0.0316 µM
[14] = second compound 0.0316 µM, first compound 0.1 µM
[15] = second compound 0.0316 µM, first compound 0.316 µM
[16] = second compound 0.0316 µM, first compound 1 µM
[17] = second compound 0.0316 µM, first compound 3.16 µM
[18] = second compound 0.0316 µM, first compound 10 µM
[19] = second compound 0.1 µM, first compound 0.0316 µM
[20] = second compound 0.1 µM, first compound 0.1 µM
[21] = second compound 0.1 µM, first compound 0.316 µM
[22] = second compound 0.1 µM, first compound 1 µM
[23] = second compound 0.1 µM, first compound 3.16 µM
[24] = second compound 0.1 µM, first compound 10 µM
[25] = second compound 0.316 µM, first compound 0.0316 µM
[26] = second compound 0.316 µM, first compound 0.1 µM
[27] = second compound 0.316 µM, first compound 0.316 µM
[28] = second compound 0.316 µM, first compound 1 µM
[29] = second compound 0.316 µM, first compound 3.16 µM
[30] = second compound 0.316 µM, first compound 10 µM
[31] = second compound 1 µM, first compound 0.0316 µM
[32] = second compound 1 µM, first compound 0.1 µM
[33] = second compound 1 µM, first compound 0.316 µM
[34] = second compound 1 µM, first compound 1 µM
[35] = second compound 1 µM, first compound 3.16 µM
[36] = second compound 1 µM, first compound 10 µM
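Also: spheroids exposed to compound for seven days before viability readout.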

CC(C)NCC(C(=O)N1CCN(c2ncnc3c2C(C)CC3O)CC1)c1ccc(Cl)cc1 (stereo unspecified) + C=CC(=O)N1CCN(c2nc(OCC3CCCN3C)nc3c(F)c(-c4nc(N)cc(C)c4C(F)(F)F)c(Cl)cc23)C(C)C1
pIC50 (second compound 0.00316 µM): 6.41
pIC50 (second compound 0.01 µM): 6.60
pIC50 (second compound 0.0316 µM): 6.23
pIC50 (second compound 0.1 µM): 6.26
pIC50 (second compound 0.316 µM): 6.21
pIC50 (second compound 1 µM): 6.26
viability, T/C [1]: 88.2%
viability, T/C [2]: 86.6%
viability, T/C [3]: 53.7%
viability, T/C [4]: 24.3%
viability, T/C [5]: 17.2%
viability, T/C [6]: 7.89%
viability, T/C [7]: 102%
viability, T/C [8]: 83.9%
viability, T/C [9]: 39.3%
viability, T/C [10]: 23.7%
viability, T/C [11]: 15.9%
viability, T/C [12]: 9.35%
viability, T/C [13]: 78%
viability, T/C [14]: 77.1%
viability, T/C [15]: 81.2%
viability, T/C [16]: 26.1%
viability, T/C [17]: 22.7%
viability, T/C [18]: 10%
viability, T/C [19]: 70%
viability, T/C [20]: 67.5%
viability, T/C [21]: 67.6%
viability, T/C [22]: 31.1%
viability, T/C [23]: 16.1%
viability, T/C [24]: 9.41%
viability, T/C [25]: 66.8%
viability, T/C [26]: 82.1%
viability, T/C [27]: 76.3%
viability, T/C [28]: 32.2%
viability, T/C [29]: 24.5%
viability, T/C [30]: 7.85%
viability, T/C [31]: 72.8%
viability, T/C [32]: 65.4%
viability, T/C [33]: 71.8%
viability, T/C [34]: 28.8%
viability, T/C [35]: 25%
viability, T/C [36]: 10.2%

CC(C)n1nc(-c2ccc3oc(N)nc3c2)c2c(N)ncnc21 + C=CC(=O)N1CCN(c2nc(OCC3CCCN3C)nc3c(F)c(-c4nc(N)cc(C)c4C(F)(F)F)c(Cl)cc23)C(C)C1
pIC50 (second compound 0.00316 µM): 8.27
pIC50 (second compound 0.01 µM): 8.45
pIC50 (second compound 0.0316 µM): 8.49
pIC50 (second compound 0.1 µM): 8.40
pIC50 (second compound 0.316 µM): 8.51
pIC50 (second compound 1 µM): 8.44
viability, T/C (second compound 0.00316 µM, first compound 0.000316 µM): 85.2%
viability, T/C (second compound 0.00316 µM, first compound 0.001 µM): 90.4%
viability, T/C (second compound 0.00316 µM, first compound 0.00316 µM): 72.3%
viability, T/C (second compound 0.00316 µM, first compound 0.01 µM): 22.8%
viability, T/C [1]: 8.58%
viability, T/C [2]: 6.85%
viability, T/C (second compound 0.01 µM, first compound 0.000316 µM): 79.3%
viability, T/C (second compound 0.01 µM, first compound 0.001 µM): 124%
viability, T/C (second compound 0.01 µM, first compound 0.00316 µM): 54.2%
viability, T/C (second compound 0.01 µM, first compound 0.01 µM): 15.6%
viability, T/C [7]: 7.53%
viability, T/C [8]: 7.07%
viability, T/C (second compound 0.0316 µM, first compound 0.000316 µM): 76.6%
viability, T/C (second compound 0.0316 µM, first compound 0.001 µM): 115%
viability, T/C (second compound 0.0316 µM, first compound 0.00316 µM): 50.9%
viability, T/C (second compound 0.0316 µM, first compound 0.01 µM): 14.1%
viability, T/C [13]: 8.15%
viability, T/C [14]: 5.8%
viability, T/C (second compound 0.1 µM, first compound 0.000316 µM): 52.8%
viability, T/C (second compound 0.1 µM, first compound 0.001 µM): 98.9%
viability, T/C (second compound 0.1 µM, first compound 0.00316 µM): 58.2%
viability, T/C (second compound 0.1 µM, first compound 0.01 µM): 14.5%
viability, T/C [19]: 8.94%
viability, T/C [20]: 5.94%
viability, T/C (second compound 0.316 µM, first compound 0.000316 µM): 63.4%
viability, T/C (second compound 0.316 µM, first compound 0.001 µM): 90.8%
viability, T/C (second compound 0.316 µM, first compound 0.00316 µM): 49.3%
viability, T/C (second compound 0.316 µM, first compound 0.01 µM): 14%
viability, T/C [25]: 8.74%
viability, T/C [26]: 6.6%
viability, T/C (second compound 1 µM, first compound 0.000316 µM): 57.6%
viability, T/C (second compound 1 µM, first compound 0.001 µM): 79.6%
viability, T/C (second compound 1 µM, first compound 0.00316 µM): 53.8%
viability, T/C (second compound 1 µM, first compound 0.01 µM): 15.2%
viability, T/C [31]: 8.85%
viability, T/C [32]: 5.88%

CC(Nc1ccc2c(c1)OCCn1cc(N3C(=O)OCC3C(F)F)nc1-2)C(N)=O (stereo unspecified) + C=CC(=O)N1CCN(c2nc(OCC3CCCN3C)nc3c(F)c(-c4nc(N)cc(C)c4C(F)(F)F)c(Cl)cc23)C(C)C1
pIC50 (second compound 0.00316 µM): 7.14
pIC50 (second compound 0.01 µM): 6.83
pIC50 (second compound 0.0316 µM): 6.71
pIC50 (second compound 0.1 µM): 6.94
pIC50 (second compound 0.316 µM): 7.24
pIC50 (second compound 1 µM): 6.89
viability, T/C [1]: 66%
viability, T/C [2]: 44.4%
viability, T/C [3]: 23.6%
viability, T/C [4]: 16.7%
viability, T/C [5]: 14.8%
viability, T/C [6]: 9.03%
viability, T/C [7]: 82%
viability, T/C [8]: 57.6%
viability, T/C [9]: 36.1%
viability, T/C [10]: 17.8%
viability, T/C [11]: 14.9%
viability, T/C [12]: 8.95%
viability, T/C [13]: 91%
viability, T/C [14]: 69.8%
viability, T/C [15]: 36%
viability, T/C [16]: 17.1%
viability, T/C [17]: 12.2%
viability, T/C [18]: 13%
viability, T/C [19]: 46.2%
viability, T/C [20]: 58.9%
viability, T/C [21]: 30%
viability, T/C [22]: 19.3%
viability, T/C [23]: 17.6%
viability, T/C [24]: 11.4%
viability, T/C [25]: 55.8%
viability, T/C [26]: 44.9%
viability, T/C [27]: 30.3%
viability, T/C [28]: 19.4%
viability, T/C [29]: 14%
viability, T/C [30]: 10.7%
viability, T/C [31]: 61.2%
viability, T/C [32]: 57.3%
viability, T/C [33]: 28.4%
viability, T/C [34]: 24.4%
viability, T/C [35]: 16.6%
viability, T/C [36]: 11.3%
